In patent US20050208197A1, “Refreshment capable of stimulating movement of digestive tract” (priority 2002, published 2005):

Columns and labels:
[1] = Water solubility of the isolated active substances; assay type: physicochemical
Excerpt: In another aspect, the present invention provides a method for separating/purifying the active substances α and β. Specifically, the method includes freeze-drying beer, which serves as the starting material, to remove volatile components and collect non-volatile components; subjecting the non-volatile components to a chromatography using synthetic absorbent to remove unadsorbed components and collect adsorbed components in a crude fraction containing concentrated active substances; subjecting the crude fraction to a weakly acidic cation exchange chromatography to remove unadsorved components; eluting the active substances with acidic methanol (methanol/hydrochloric acid); subjecting the eluate to gel filtration chromatography using 0.01N hydrochloric acid to obtain a purified fraction; subjecting the purified fraction to C18 high performance liquid chromatography (ODS-HPLC) for further purification to isolate the two active substances. The active substances so obtained were water-soluble.

stomach emptying in mice = assay: Stomach emptying in mice (phenol red test feed); assay type: in vivo; conditions: oral, dose-dependent, P<0.05 vs distilled water, FIG. 15
Procedure: Using a stomach tube, ddY line mice (10 animals in each group) were orally administered each of distilled water, the active substances α and β following an 18-hour fasting period. 60 minutes after administration, each animal was orally administered a test feed (0.2 mL/animal; 1.5% methylcellulose solution containing 0.05% phenol red) using the same technique. After 15 minutes, the animals were sacrificed by cervical dislocation and the stomachs were removed. The stomachs, along with their contents, were then homogenized in 10 mL 0.1N NaOH and the homogenates were allowed to stand for 1 hour at room temperature. To 1 mL of the resulting supernatant, 0.1 mL 20% trichloroacetic acid was added and the supernatant was centrifuged to precipitate proteins. Subsequently, 0.5 ml of the resulting supernatant was collected and 0.5 mL 0.5N NaOH was added to color the solution. The absorbance of the solution at 560 nm was measured to determine the amount of phenol red remaining in the stomach. The rate of stomach emptying was determined by the following equation: Stomach emptying rate (%)=(A−B)/A×100 where ‘A’ is the amount of phenol red in the stomach immediately after the administration of the test feed; and ‘B’ is the amount of phenol red remaining in the stomach 15 minutes after the administration of the test feed. 2. Results

[2] = molecular target: T1, human muscarinic M3 receptors (Homo sapiens, UniProt P20309); assay: Test for binding activity to muscarinic M3 receptors ([3H]4-DAMP displacement)
T1 construct: expressed in transfected cells; host or cells: CHO (Chinese hamster ovary) cells, membrane preparation
T1 sequence (P20309 whole entry): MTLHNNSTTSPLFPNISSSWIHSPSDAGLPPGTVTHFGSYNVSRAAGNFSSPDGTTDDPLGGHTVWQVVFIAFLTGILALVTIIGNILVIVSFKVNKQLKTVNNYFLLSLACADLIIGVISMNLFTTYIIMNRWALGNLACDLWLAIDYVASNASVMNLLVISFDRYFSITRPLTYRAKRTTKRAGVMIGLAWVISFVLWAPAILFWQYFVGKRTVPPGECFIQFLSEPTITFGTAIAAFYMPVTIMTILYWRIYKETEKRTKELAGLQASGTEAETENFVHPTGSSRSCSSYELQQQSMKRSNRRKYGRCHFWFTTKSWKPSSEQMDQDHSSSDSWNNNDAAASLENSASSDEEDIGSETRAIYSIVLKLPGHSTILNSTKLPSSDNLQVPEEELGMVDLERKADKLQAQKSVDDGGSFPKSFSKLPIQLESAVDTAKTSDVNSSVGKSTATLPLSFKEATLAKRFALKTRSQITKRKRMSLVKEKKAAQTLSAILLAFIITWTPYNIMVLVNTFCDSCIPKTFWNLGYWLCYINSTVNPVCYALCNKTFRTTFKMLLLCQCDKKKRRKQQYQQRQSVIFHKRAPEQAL
Procedure: The mixture was then incubated at 22° C. for 60 min. Subsequently, the reaction mixture was filtered through a glass fiber filter (GF/B, PACKARD) while aspirated. Once the reaction came to an end, the mixture was washed several times with ice-chilled buffer. A scintillation cocktail (Microscint O, PACKARD) was then added to the filter, and the residual radioactivity was measured by a liquid scintillation counter (Topcount, PACKARD).

## N=C(N)NCCCCNC(=O)/C=C/c1ccc2c(c1)[C@H](C(=O)NCCCCNC(=N)N)[C@H](c1ccc(O)cc1)O2 [active substance α]
[1]
  solubility in water: water-soluble
Stomach emptying in mice; 0.1 and 0.3 mg/kg
  stimulation of stomach emptying: significantly stimulated stomach emptying
[2]
  IC50: 1180 nM

## N=C(N)NCCCCNC(=O)/C=C/c1ccc2c(c1)[C@@H](C(=O)NCCCCNC(=N)N)[C@H](c1ccc(O)cc1)O2 [active substance β]
[1]
  solubility in water: water-soluble
Stomach emptying in mice; 0.3 and 1.0 mg/kg
  stimulation of stomach emptying: significantly stimulated stomach emptying
[2]
  IC50: 4180 nM
